Assays:
[1] = Ratio of drug uptake in pons to cerebellum in anesthetized cynomolgus monkey after 195 mins postinjection; assay type: ADME, organism-based, Macaca fascicularis; details: in vivo, 3.25 h
[2] = Ratio of drug uptake in medulla to cerebellum in anesthetized cynomolgus monkey after 0.5 mins postinjection; assay type: ADME, organism-based, Macaca fascicularis; details: in vivo
[3] = Ratio of drug uptake in medulla to cerebellum in anesthetized cynomolgus monkey after 18.5 mins postinjection; assay type: ADME, organism-based, Macaca fascicularis; details: in vivo
[4] = Ratio of drug uptake in medulla to cerebellum in anesthetized cynomolgus monkey after 85 mins postinjection; assay type: ADME, organism-based, Macaca fascicularis; details: in vivo
[5] = Ratio of drug uptake in medulla to cerebellum in anesthetized cynomolgus monkey after 155 mins postinjection; assay type: ADME, organism-based, Macaca fascicularis; details: in vivo
[6] = Drug uptake in anesthetized cynomolgus monkey brain occipital lobe after 45 mins postinjection; assay type: ADME, organism-based, Macaca fascicularis; details: in vivo, 0.75 h
[7] = Drug uptake in anesthetized cynomolgus monkey brain occipital lobe after 75 mins postinjection; assay type: ADME, organism-based, Macaca fascicularis; details: in vivo, 1.25 h
[8] = Drug uptake in anesthetized cynomolgus monkey brain occipital lobe after 135 mins postinjection; assay type: ADME, organism-based, Macaca fascicularis; details: in vivo, 2.25 h
[9] = Drug uptake in anesthetized cynomolgus monkey brain occipital lobe after 225 mins postinjection; assay type: ADME, organism-based, Macaca fascicularis; details: in vivo, 3.75 h
[10] = Drug uptake in anesthetized cynomolgus monkey brain frontal lobe after 0.5 mins postinjection; assay type: ADME, organism-based, Macaca fascicularis; details: in vivo
[11] = Drug uptake in anesthetized cynomolgus monkey brain frontal lobe after 3.5 mins postinjection; assay type: ADME, organism-based, Macaca fascicularis; details: in vivo
[12] = Drug uptake in anesthetized cynomolgus monkey brain frontal lobe after 4.5 mins postinjection; assay type: ADME, organism-based, Macaca fascicularis; details: in vivo, 0.075 h
[13] = Drug uptake in anesthetized cynomolgus monkey brain frontal lobe after 9.5 mins postinjection; assay type: ADME, organism-based, Macaca fascicularis; details: in vivo
[14] = Drug uptake in anesthetized cynomolgus monkey brain frontal lobe after 65 mins postinjection; assay type: ADME, organism-based, Macaca fascicularis; details: in vivo
[15] = Drug uptake in anesthetized cynomolgus monkey brain frontal lobe after 145 mins postinjection; assay type: ADME, organism-based, Macaca fascicularis; details: in vivo
[16] = Drug uptake in anesthetized cynomolgus monkey brain frontal lobe after 165 mins postinjection; assay type: ADME, organism-based, Macaca fascicularis; details: in vivo, 2.75 h
[17] = Drug uptake in anesthetized cynomolgus monkey brain frontal lobe after 175 mins postinjection; assay type: ADME, organism-based, Macaca fascicularis; details: in vivo
[18] = Ratio of drug uptake in occipital lobe to cerebellum in anesthetized cynomolgus monkey after 205 mins postinjection; assay type: ADME, organism-based, Macaca fascicularis; details: in vivo
[19] = Ratio of drug uptake in frontal lobe to cerebellum in anesthetized cynomolgus monkey after 145 mins postinjection; assay type: ADME, organism-based, Macaca fascicularis; details: in vivo
Midbrain [20] = test: Drug uptake in anesthetized cynomolgus monkey brain midbrain after 155 mins postinjection; assay type: ADME, organism-based, Macaca fascicularis; details: in vivo
Midbrain [21] = test: Drug uptake in anesthetized cynomolgus monkey brain midbrain after 215 mins postinjection; assay type: ADME, organism-based, Macaca fascicularis; details: in vivo
Pons [22] = test: Drug uptake in anesthetized cynomolgus monkey brain pons after 35 mins postinjection; assay type: ADME, organism-based, Macaca fascicularis; details: in vivo
Pons [23] = test: Drug uptake in anesthetized cynomolgus monkey brain pons after 45 mins postinjection; assay type: ADME, organism-based, Macaca fascicularis; details: in vivo, 0.75 h
Midbrain [24] = test: Drug uptake in anesthetized cynomolgus monkey brain midbrain after 195 mins postinjection; assay type: ADME, organism-based, Macaca fascicularis; details: in vivo, 3.25 h
Pons [25] = test: Drug uptake in anesthetized cynomolgus monkey brain pons after 205 mins postinjection; assay type: ADME, organism-based, Macaca fascicularis; details: in vivo
[26] = Ratio of drug uptake in frontal lobe to cerebellum in anesthetized cynomolgus monkey after 195 mins postinjection; assay type: ADME, organism-based, Macaca fascicularis; details: in vivo, 3.25 h
Putamen [27] = test: Drug uptake in anesthetized cynomolgus monkey brain putamen after 195 mins postinjection; assay type: ADME, organism-based, Macaca fascicularis; details: in vivo, 3.25 h
[28] = Ratio of drug uptake in caudate to cerebellum in anesthetized cynomolgus monkey after 95 mins postinjection; assay type: ADME, organism-based, Macaca fascicularis; details: in vivo
Medulla [29] = test: Drug uptake in anesthetized cynomolgus monkey brain medulla after 4.5 mins postinjection; assay type: ADME, organism-based, Macaca fascicularis; details: in vivo, 0.075 h
Medulla [30] = test: Drug uptake in anesthetized cynomolgus monkey brain medulla after 12.5 mins postinjection; assay type: ADME, organism-based, Macaca fascicularis; details: in vivo
Medulla [31] = test: Drug uptake in anesthetized cynomolgus monkey brain medulla after 27.5 mins postinjection; assay type: ADME, organism-based, Macaca fascicularis; details: in vivo
Medulla [32] = test: Drug uptake in anesthetized cynomolgus monkey brain medulla after 45 mins postinjection; assay type: ADME, organism-based, Macaca fascicularis; details: in vivo, 0.75 h
[33] = Ratio of drug uptake in putamen to cerebellum in anesthetized cynomolgus monkey after 3.5 mins postinjection; assay type: ADME, organism-based, Macaca fascicularis; details: in vivo
Medulla [34] = test: Drug uptake in anesthetized cynomolgus monkey brain medulla after 155 mins postinjection; assay type: ADME, organism-based, Macaca fascicularis; details: in vivo
Medulla [35] = test: Drug uptake in anesthetized cynomolgus monkey brain medulla after 165 mins postinjection; assay type: ADME, organism-based, Macaca fascicularis; details: in vivo, 2.75 h
Medulla [36] = test: Drug uptake in anesthetized cynomolgus monkey brain medulla after 175 mins postinjection; assay type: ADME, organism-based, Macaca fascicularis; details: in vivo
[37] = Ratio of drug uptake in putamen to cerebellum in anesthetized cynomolgus monkey after 75 mins postinjection; assay type: ADME, organism-based, Macaca fascicularis; details: in vivo, 1.25 h
[38] = Ratio of drug uptake in putamen to cerebellum in anesthetized cynomolgus monkey after 155 mins postinjection; assay type: ADME, organism-based, Macaca fascicularis; details: in vivo
Medulla [39] = test: Drug uptake in anesthetized cynomolgus monkey brain medulla after 225 mins postinjection; assay type: ADME, organism-based, Macaca fascicularis; details: in vivo, 3.75 h
[40] = Drug uptake in anesthetized cynomolgus monkey brain cerebellum after 9.5 mins postinjection; assay type: ADME, organism-based, Macaca fascicularis; details: in vivo
[41] = Drug uptake in anesthetized cynomolgus monkey brain cerebellum after 22.5 mins postinjection; assay type: ADME, organism-based, Macaca fascicularis; details: in vivo, 0.375 h
[42] = Drug uptake in anesthetized cynomolgus monkey brain cerebellum after 75 mins postinjection; assay type: ADME, organism-based, Macaca fascicularis; details: in vivo, 1.25 h
[43] = Drug uptake in anesthetized cynomolgus monkey brain occipital lobe after 0.5 mins postinjection; assay type: ADME, organism-based, Macaca fascicularis; details: in vivo
Caudate [44] = test: Drug uptake in anesthetized cynomolgus monkey brain caudate after 2.5 mins postinjection; assay type: ADME, organism-based, Macaca fascicularis, Caudate nucleus; details: in vivo
Caudate [45] = test: Drug uptake in anesthetized cynomolgus monkey brain caudate after 18.5 mins postinjection; assay type: ADME, organism-based, Macaca fascicularis, Caudate nucleus; details: in vivo
Caudate [46] = test: Drug uptake in anesthetized cynomolgus monkey brain caudate after 22.5 mins postinjection; assay type: ADME, organism-based, Macaca fascicularis, Caudate nucleus; details: in vivo, 0.375 h
Caudate [47] = test: Drug uptake in anesthetized cynomolgus monkey brain caudate after 35 mins postinjection; assay type: ADME, organism-based, Macaca fascicularis, Caudate nucleus; details: in vivo
Caudate [48] = test: Drug uptake in anesthetized cynomolgus monkey brain caudate after 45 mins postinjection; assay type: ADME, organism-based, Macaca fascicularis, Caudate nucleus; details: in vivo, 0.75 h
Caudate [49] = test: Drug uptake in anesthetized cynomolgus monkey brain caudate after 55 mins postinjection; assay type: ADME, organism-based, Macaca fascicularis, Caudate nucleus; details: in vivo
Caudate [50] = test: Drug uptake in anesthetized cynomolgus monkey brain caudate after 65 mins postinjection; assay type: ADME, organism-based, Macaca fascicularis, Caudate nucleus; details: in vivo
Caudate [51] = test: Drug uptake in anesthetized cynomolgus monkey brain caudate after 85 mins postinjection; assay type: ADME, organism-based, Macaca fascicularis, Caudate nucleus; details: in vivo
Caudate [52] = test: Drug uptake in anesthetized cynomolgus monkey brain caudate after 155 mins postinjection; assay type: ADME, organism-based, Macaca fascicularis, Caudate nucleus; details: in vivo
[53] = Ratio of drug uptake in occipital lobe to cerebellum in anesthetized cynomolgus monkey after 4.5 mins postinjection; assay type: ADME, organism-based, Macaca fascicularis; details: in vivo, 0.075 h
[54] = Ratio of drug uptake in occipital lobe to cerebellum in anesthetized cynomolgus monkey after 18.5 mins postinjection; assay type: ADME, organism-based, Macaca fascicularis; details: in vivo
Thalamus [55] = test: Drug uptake in anesthetized cynomolgus monkey brain thalamus after 2.5 mins postinjection; assay type: ADME, organism-based, Macaca fascicularis; set-up: unit not given here; details: in vivo
Thalamus [56] = test: Drug uptake in anesthetized cynomolgus monkey brain thalamus after 12.5 mins postinjection; assay type: ADME, organism-based, Macaca fascicularis; set-up: unit not given here; details: in vivo
Thalamus [57] = test: Drug uptake in anesthetized cynomolgus monkey brain thalamus after 18.5 mins postinjection; assay type: ADME, organism-based, Macaca fascicularis; set-up: unit not given here; details: in vivo
Putamen [58] = test: Drug uptake in anesthetized cynomolgus monkey brain putamen after 4.5 mins postinjection; assay type: ADME, organism-based, Macaca fascicularis; set-up: unit not given here; details: in vivo, 0.075 h
Putamen [59] = test: Drug uptake in anesthetized cynomolgus monkey brain putamen after 75 mins postinjection; assay type: ADME, organism-based, Macaca fascicularis; set-up: unit not given here; details: in vivo, 1.25 h
Thalamus [60] = test: Drug uptake in anesthetized cynomolgus monkey brain thalamus after 85 mins postinjection; assay type: ADME, organism-based, Macaca fascicularis; set-up: unit not given here; details: in vivo
Thalamus [61] = test: Drug uptake in anesthetized cynomolgus monkey brain thalamus after 95 mins postinjection; assay type: ADME, organism-based, Macaca fascicularis; set-up: unit not given here; details: in vivo
Thalamus [62] = test: Drug uptake in anesthetized cynomolgus monkey brain thalamus after 105 mins postinjection; assay type: ADME, organism-based, Macaca fascicularis; set-up: unit not given here; details: in vivo, 1.75 h
Thalamus [63] = test: Drug uptake in anesthetized cynomolgus monkey brain thalamus after 125 mins postinjection; assay type: ADME, organism-based, Macaca fascicularis; set-up: unit not given here; details: in vivo
Midbrain [64] = test: Drug uptake in anesthetized cynomolgus monkey brain midbrain after 0.5 mins postinjection; assay type: ADME, organism-based, Macaca fascicularis; set-up: unit not given here; details: in vivo
Midbrain [65] = test: Drug uptake in anesthetized cynomolgus monkey brain midbrain after 6.5 mins postinjection; assay type: ADME, organism-based, Macaca fascicularis; set-up: unit not given here; details: in vivo
Midbrain [66] = test: Drug uptake in anesthetized cynomolgus monkey brain midbrain after 45 mins postinjection; assay type: ADME, organism-based, Macaca fascicularis; set-up: unit not given here; details: in vivo, 0.75 h
[67] = Ratio of drug uptake in midbrain to cerebellum in anesthetized cynomolgus monkey after 22.5 mins postinjection; assay type: ADME, organism-based, Macaca fascicularis; details: in vivo, 0.375 h
[68] = Ratio of drug uptake in midbrain to cerebellum in anesthetized cynomolgus monkey after 145 mins postinjection; assay type: ADME, organism-based, Macaca fascicularis; details: in vivo

In the case of `O=C(OCC[18F])C1C2CCC(CC1c1cccc(/C=C\Br)c1)N2` (stereo not drawn), the Ratio [1] is reported as 2, the Ratio [2] is reported as 0.6 and the Ratio [3] is reported as 1.2. It also gave a Ratio [4] of 1.5, a Ratio [5] of 1.7 and a Drug uptake [6] of 3.55. For the same compound, the Drug uptake [7] was 3.49, the Drug uptake [8] was 2.78 and the Drug uptake [9] was 1.95. For the same compound, the Drug uptake [10] was 0, the Drug uptake [11] was 0.62 and the Drug uptake [12] was 1.02. The Drug uptake [13] was 2.06, the Drug uptake [14] was 2.94 and the Drug uptake [15] was 2.52. The Drug uptake [16] was 2.38, the Drug uptake [17] was 2.19 and the Ratio [18] was 1.3. It also gave a Ratio [19] of 1.1, a Drug uptake (Midbrain [20]) of 4.54 and a Drug uptake (Midbrain [21]) of 3.76. The Drug uptake (Pons [22]) was 4.22, the Drug uptake (Pons [23]) was 4.45 and the Drug uptake (Midbrain [24]) was 3.91. It also gave a Drug uptake (Pons [25]) of 3.51, a Ratio [26] of 1.2 and a Drug uptake (Putamen [27]) of 3.53. It also gave a Ratio [28] of 1.4, a Drug uptake (Medulla [29]) of 2.07 and a Drug uptake (Medulla [30]) of 4.2. For the same compound, the Drug uptake (Medulla [31]) was 4.57, the Drug uptake (Medulla [32]) was 4.87 and the Ratio [33] was 0.9. It also gave a Drug uptake (Medulla [34]) of 3.83, a Drug uptake (Medulla [35]) of 3.94 and a Drug uptake (Medulla [36]) of 3.62. For the same compound, the Ratio [37] was 1.5, the Ratio [38] was 1.8 and the Drug uptake (Medulla [39]) was 2.67. For the same compound, the Drug uptake [40] was 3.17, the Drug uptake [41] was 3.81 and the Drug uptake [42] was 3.3. The Drug uptake [43] was 0.01, the Drug uptake (Caudate [44]) was 0.36 and the Drug uptake (Caudate [45]) was 2.8. It also gave a Drug uptake (Caudate [46]) of 3.22, a Drug uptake (Caudate [47]) of 3.56 and a Drug uptake (Caudate [48]) of 3.83. It also gave a Drug uptake (Caudate [49]) of 4.1, a Drug uptake (Caudate [50]) of 4.08 and a Drug uptake (Caudate [51]) of 4.06. The Drug uptake (Caudate [52]) was 3.47, the Ratio [53] was 0.7 and the Ratio [54] was 0.8. For the same compound, the Drug uptake (Thalamus [55]) was 0.29, the Drug uptake (Thalamus [56]) was 3 and the Drug uptake (Thalamus [57]) was 3.32. The Drug uptake (Putamen [58]) was 1.72, the Drug uptake (Putamen [59]) was 5 and the Drug uptake (Thalamus [60]) was 4.41. It also gave a Drug uptake (Thalamus [61]) of 4.31, a Drug uptake (Thalamus [62]) of 4.23 and a Drug uptake (Thalamus [63]) of 4.15. The Drug uptake (Midbrain [64]) was 0.01, the Drug uptake (Midbrain [65]) was 2.99 and the Drug uptake (Midbrain [66]) was 4.82. The Ratio [67] was 1.1 and the Ratio [68] was 2.

Source: ChEMBL document CHEMBL1151757, “Synthesis, radiosynthesis, and biological evaluation of fluorine-18-labeled 2beta-carbo(fluoroalkoxy)-3beta-(3'-((Z)-2-haloethenyl)phenyl)nortropanes: candidate radioligands for in vivo imaging of the serotonin transporter with positron emission tomography” (J Med Chem, 2008)
